Key:
[1] = biological target: T1, native human Bradykinin B1 receptor (Homo sapiens, UniProt P46663); test: Calcium flux assay (FLIPR) with IMR-90 human fibroblasts expressing Bradykinin B1 receptor after IL-1beta induction (hB1 IMR-90); type: cell-based; settings: IMR-90 human fibroblasts after IL-1beta induction, read-out: hB1 IMR90 IC50
T1 construct: which express native human Bradykinin B1 receptor after induction with human IL-1beta; Coriell Institute; host or cells: IMR-90 human foetal lung fibroblasts, induced with human IL-1beta
T1 sequence (P46663 1-353): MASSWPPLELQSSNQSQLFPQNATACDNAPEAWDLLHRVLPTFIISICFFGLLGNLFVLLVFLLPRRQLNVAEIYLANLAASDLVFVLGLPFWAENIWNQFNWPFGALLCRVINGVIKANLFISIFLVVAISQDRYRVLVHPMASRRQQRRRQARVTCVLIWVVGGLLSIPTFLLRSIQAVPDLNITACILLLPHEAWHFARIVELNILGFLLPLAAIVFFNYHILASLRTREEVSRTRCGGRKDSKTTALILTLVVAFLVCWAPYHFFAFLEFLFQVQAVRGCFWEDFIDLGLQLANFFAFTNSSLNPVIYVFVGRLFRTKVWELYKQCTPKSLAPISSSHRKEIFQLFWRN
Method: Calcium Flux Assay (FLIPR) with Human Fibroblasts Expressing Bradykinin B1 Receptor (hB1 IMR-90)
The Calcium flux Assay was carried out utilising IMR-90 human foetal lung fibroblasts (American Type Culture Collection, Rockville, MD; and Coriell Institute, Camden, New Jersey), which express native human Bradykinin B1 receptor after induction with human IL-1beta.
The fibroblasts were cultured in complete growth media comprised of Dulbecco's modified Eagle's medium (DMEM; Sigma) containing 10% foetal bovine serum, 4 mM L-glutamine, and 1% nonessential amino acids. The cells were maintained in a humidified atmosphere with 5% CO2 at 37° C. and were sub-cultured at a ratio of 1:3, every other day.
For the assay, IMR-90 fibroblasts were harvested using TrypLE Express (GIBCO/Invitrogen) and seeded into 384-well plates (Corning Cellbinding Surface, Cat. 3683) at a density of 15000 cells/well. The following day, cells were treated with 0.35 ng/mL human IL-1beta in 10% FBS/MEM for 3 h to up-regulate Bradykinin B1 receptor. Induced cells were loaded with fluorescent calcium indicator by incubation with 2.5 μM Fluo-4/AM (Invitrogen) at 37° C., 5% CO2 for 2 h in the presence of 2.5 mM probenecid in 1% FBS/MEM. […] Compound examples were assayed at 8 concentrations in triplicate. […] A peptide antagonist Lys-(Des-Arg-Leu)-Bradykinin (Bachem, Brackley) at 20 µM was used to determine the full inhibition as control. IC50 values were determined by the same way described for the FLI PR assay with recombinant cells.

[2] = biological target: T2, human Bradykinin B1 receptor (Homo sapiens, UniProt P46663); test: Calcium flux assay (FLIPR), CHO-K1 cells expressing human Bradykinin B1 receptor, absence of 0.1% BSA (hB1 free IC50); type: cell-based; settings: absence of 0.1% BSA in assay buffer
T2 construct: host or cells: CHO-K1
T2 sequence (P46663 1-353): T1 sequence (P46663 1-353)
Summary of the method: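 Peak FLIPR fluorescence (538 nm) after B1 agonist peptide addition gave IC50s, scaled between DMSO and full block by 20 µM Lys-(Des-Arg-Leu)-Bradykinin. Compounds were preincubated 30 min at 28° C with calcium-dye-loaded CHO-K1 cells expressing human B1, at 8 concentrations in triplicate, 1% DMSO final.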

IC50 [1]	IC50 [2]	SMILES
22 nM	26 nM	O=C(O)c1cc(NC(=O)C2(c3cc(Cl)ccc3F)CC2)ccc1-c1cnn(C2CCC2)c1 [Example 54, 5-({[1-(5-Chloro-2-fluorophenyl)cyclopropyl]carbonyl}amino)-2-(1-cyclobutyl-1H-pyrazol-4-yl)benzoic acid]
41 nM	61 nM	CC(C)(C)c1cn(-c2ccc(NC(=O)C3(c4ccc(C(F)(F)F)cc4F)CC3)cc2C(=O)O)cn1 [Example 67, 2-(4-tert-Butyl-1H-imidazol-1-yl)-5-[({1-[2-fluoro-4-(trifluoromethyl)phenyl]cyclopropyl}carbonyl)amino]benzoic acid]
49 nM	34 nM	CC(C)n1cc(-c2ccc(NC(=O)C3(c4ccc(C(F)(F)F)cc4F)CC3)cc2C(=O)O)cn1 [Example 70, 5-[({1-[2-Fluoro-4-(trifluoromethyl)phenyl]cyclopropyl}carbonyl)amino]-2-[1-(propan-2-yl)-1H-pyrazol-4-yl]benzoic acid]
44 nM	21 nM	CC(C)(C)n1cc(-c2ccc(NC(=O)C3(c4ccc(OC(F)(F)F)cc4F)CC3)cc2C(=O)O)cn1 [Example 73, 2-(1-tert-Butyl-1H-pyrazol-4-yl)-5-[({1-[2-fluoro-4-(trifluoromethoxy)phenyl]cyclopropyl}carbonyl)amino]benzoic acid]
15 nM	17 nM	CC(C)Cn1cc(-c2ccc(NC(=O)C3(c4ccc(C(F)(F)F)cc4F)CC3)cc2C(=O)O)cn1 [Example 74, 5-[({1-[2-Fluoro-4-(trifluoromethyl)phenyl]cyclopropyl}carbonyl)amino]-2-[1-(2-methylpropyl)-1H-pyrazol-4-yl]benzoic acid]
18 nM	11 nM	CC(C)Cn1cc(-c2ccc(NC(=O)C3(c4ccc(OC(F)(F)F)cc4F)CC3)cc2C(=O)O)cn1 [Example 75, 5-[({1-[2-Fluoro-4-(trifluoromethoxy)phenyl]cyclopropyl}carbonyl)amino]-2-[1-(2-methylpropyl)-1H-pyrazol-4-yl]benzoic acid]
13 nM	17 nM	CC(C)(C)Cn1cc(-c2ccc(NC(=O)C3(c4ccc(OC(F)(F)F)cc4F)CC3)cc2C(=O)O)cn1 [Example 77, 2-[1-(2,2-Dimethylpropyl)-1H-pyrazol-4-yl]-5-[({1-[2-fluoro-4-(trifluoromethoxy)phenyl]cyclopropyl}carbonyl)amino]benzoic acid]
10 nM	32 nM	CC(C)n1cc(-c2c(F)cc(NC(=O)C3(c4ccc(C(F)(F)F)cc4F)CC3)cc2C(=O)O)cn1 [Example 88, 3-Fluoro-5-[({1-[2-fluoro-4-(trifluoromethyl)phenyl]cyclopropyl}carbonyl)amino]-2-[1-(propan-2-yl)-1H-pyrazol-4-yl]benzoic acid]
14 nM	32 nM	CC(C)n1cc(-c2c(F)cc(NC(=O)C3(c4ccc(OC(F)(F)F)cc4F)CC3)cc2C(=O)O)cn1 [Example 89, 3-Fluoro-5-[({1-[2-fluoro-4-(trifluoromethoxy)phenyl]cyclopropyl}carbonyl)amino]-2-[1-(propan-2-yl)-1H-pyrazol-4-yl]benzoic acid]
7.6 nM	20 nM	CC(C)(C)c1cn(-c2c(F)cc(NC(=O)C3(c4ccc(OC(F)(F)F)cc4F)CC3)cc2C(=O)O)cn1 [Example 91, 2-(4-tert-Butyl-1H-imidazol-1-yl)-3-fluoro-5-[({1-[2-fluoro-4-(trifluoromethoxy)phenyl]cyclopropyl}carbonyl)amino]benzoic acid]
21 nM	13 nM	O=C(O)c1cc(NC(=O)C2(c3ccc(OC(F)(F)F)cc3F)CC2)cc(F)c1-c1ccc(C(F)F)nc1 [Example 95, 2-[6-(Difluoromethyl)pyridin-3-yl]-3-fluoro-5-[({1-[2-fluoro-4-(trifluoromethoxy)phenyl]cyclopropyl}carbonyl)amino]benzoic acid]
25 nM	10 nM	CCC(F)(F)c1ccc(-c2c(F)cc(NC(=O)C3(c4ccc(OC(F)(F)F)cc4F)CC3)cc2C(=O)O)cn1 [Example 97, 2-[6-(1,1-Difluoropropyl)pyridin-3-yl]-3-fluoro-5-[({1-[2-fluoro-4-(trifluoromethoxy)phenyl]cyclopropyl}carbonyl)amino]benzoic acid]
13 nM	8.9 nM	O=C(O)c1cc(NC(=O)C2(c3ccc(C(F)(F)F)cc3F)CC2)cc(Cl)c1-c1cnn(C2CCC2)c1 [Example 100, 3-Chloro-2-(1-cyclobutyl-1H-pyrazol-4-yl)-5-[({1-[2-fluoro-4-(trifluoromethyl)phenyl]cyclopropyl}carbonyl)amino]benzoic acid]
5.5 nM	3.5 nM	O=C(O)c1cc(NC(=O)C2(c3ccc(OC(F)(F)F)cc3F)CC2)cc(Cl)c1-c1cnn(C2CCC2)c1 [Example 101, 3-Chloro-2-(1-cyclobutyl-1H-pyrazol-4-yl)-5-[({1-[2-fluoro-4-(trifluoromethoxy)phenyl]cyclopropyl}carbonyl)amino]benzoic acid]
74 nM	17 nM	CCC(F)(F)c1ccc(-c2c(Cl)cc(NC(=O)C3(c4ccc(C(F)(F)F)cc4F)CC3)cc2C(=O)O)cn1 [Example 105, 3-Chloro-2-[6-(1,1-difluoropropyl)pyridin-3-yl]-5-[({1-[2-fluoro-4-(trifluoromethyl)phenyl]cyclopropyl}carbonyl)amino]benzoic acid]
35 nM	8.4 nM	CCC(F)(F)c1ccc(-c2c(Cl)cc(NC(=O)C3(c4ccc(OC(F)(F)F)cc4F)CC3)cc2C(=O)O)cn1 [Example 106, 3-Chloro-2-[6-(1,1-difluoropropyl)pyridin-3-yl]-5-[({1-[2-fluoro-4-(trifluoromethoxy)phenyl]cyclopropyl}carbonyl)amino]benzoic acid]
36 nM	22 nM	Cc1cc(NC(=O)C2(c3ccc(C(F)(F)F)cc3F)CC2)cc(C(=O)O)c1-c1cnn(C2CCC2)c1 [Example 107, 2-(1-Cyclobutyl-1H-pyrazol-4-yl)-5-[({1-[2-fluoro-4-(trifluoromethyl)phenyl]cyclopropyl}carbonyl)amino]-3-methylbenzoic acid]
13 nM	14 nM	Cc1cc(NC(=O)C2(c3ccc(OC(F)(F)F)cc3F)CC2)cc(C(=O)O)c1-c1cnn(C2CCC2)c1 [Example 108, 2-(1-Cyclobutyl-1H-pyrazol-4-yl)-5-[({1-[2-fluoro-4-(trifluoromethoxy)phenyl]cyclopropyl}carbonyl)amino]-3-methylbenzoic acid]

SMILES	IC50 [1]	IC50 [2]
CCC(F)(F)c1ccc(-c2c(F)cc(NC(=O)C3(c4ccc(C(F)(F)F)cc4F)CC3)cc2C(=O)O)cn1 [Example 96, 2-[6-(1,1-Difluoropropyl)pyridin-3-yl]-3-fluoro-5-[({1-[2-fluoro-4-(trifluoromethyl)phenyl]cyclopropyl}carbonyl)amino]benzoic acid]	25 nM	8.1 nM

Reference: patent US12023319B2, “Carboxylic acid aromatic amides” (priority 2016, dated 2024)
